This note sets out measurements from US11155546B2, “4,6,7-trisubstituted 1,2-dihydropyrrolo[3,4-c]pyridin/pyrimidin-3-one derivatives and uses thereof” (SHANGHAI HAIYAN PHARMACEUTICAL TECHNOLOGY CO., LTD., priority 2017, dated 2021).

pIC50: −log10 of the molar value.

For one data set, the target named is wild-type EGFR kinase (Homo sapiens (Human), UniProt P00533). Kind of data set: Wild type EGFR kinase inhibition test (z-lyte). The data set is classed as biochemical. The note with it: 10 μM ATP; read-out: EGFR WT IC50. The text has this:
All the following reagents used in z-lyte test are commercially available from Invitrogen.
The calculation method for the inhibition ratio (referring to the specification of Invitrogen, PV3363) was as follows: ER=Coumarin Emission(450 nm)/Fluorescein Emission(520 nm) 1. Phosphorylation ratio=(1−((ER×C3520nm−C3450nm)/((C1450nm−C3450nm)+ER×(C3520nm−C1520nm))))×100% 2. Inhibition ratio (IR)=(1−phosphorylation ratio of the test compound)/(phosphorylation ratio of C2))×100% 3.
The half-inhibitory concentration IC50 was calculated by fitting with XLFIT 5.0 software (IDBS, UK).

In a further data set the target is BTK WT (Homo sapiens (Human), UniProt Q06187). Briefly: Lantha screening kinase reaction, inhibition of BTK WT. The data set is classed as biochemical. The method, then: The compound was predissolved in 100% DMSO. 10 mM drug stock solution was obtained by dissolution at room temperature and then serially diluted with 8 vol % DMSO solution to a final concentration of 10-0.005 μM. […] Among the wells, the kinase in the blank well was replaced with a reaction buffer and the kinase well (Enzyme) was not added with any drug. After shaking at 25° C. for 60 minutes in the dark, 10 μl of Detection Solution (mixture of Invitrogen PV3528 and EDTA, which was diluted with TR-FRET dilution buffer, the working concentration of EDTA was 5 mM, the working concentration of Lanthascreening Tb PY20 antibody was 0.2 nM) was added and shaken at room temperature for 30 minutes. The plates were read on a VictorX5 fluorescent plate reader (PerkinElmer) and the light absorption at an excitation wavelength of 340 nm and emission wavelengths of 500 nm and 520 nm was measured.
BTK WT, sequence (Q06187 whole entry): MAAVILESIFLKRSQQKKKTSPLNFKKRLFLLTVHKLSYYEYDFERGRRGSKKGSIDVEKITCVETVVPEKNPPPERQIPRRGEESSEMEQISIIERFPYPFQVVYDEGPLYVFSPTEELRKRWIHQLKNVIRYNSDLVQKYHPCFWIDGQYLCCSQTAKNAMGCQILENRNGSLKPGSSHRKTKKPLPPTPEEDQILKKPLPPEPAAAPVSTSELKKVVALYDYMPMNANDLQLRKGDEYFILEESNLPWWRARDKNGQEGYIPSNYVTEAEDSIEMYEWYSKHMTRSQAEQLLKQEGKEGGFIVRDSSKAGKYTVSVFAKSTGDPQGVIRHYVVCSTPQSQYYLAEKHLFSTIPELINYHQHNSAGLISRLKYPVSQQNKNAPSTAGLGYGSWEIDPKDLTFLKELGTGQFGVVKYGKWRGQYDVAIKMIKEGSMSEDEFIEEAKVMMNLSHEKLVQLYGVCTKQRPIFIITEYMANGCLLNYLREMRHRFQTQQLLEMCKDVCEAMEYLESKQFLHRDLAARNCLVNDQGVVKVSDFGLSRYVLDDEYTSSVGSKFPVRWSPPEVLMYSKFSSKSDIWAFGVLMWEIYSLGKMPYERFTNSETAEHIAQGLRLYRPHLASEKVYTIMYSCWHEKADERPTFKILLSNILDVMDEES
The calculation method for the inhibition ratio (referring to the specification of Invitrogen, PV3363) was as follows: Emission ratio (ER):Coumarin Emission (520 nm)/Fluorescein Emission (500 nm) 1. The inhibition ratio (IR):(ERkinase−ERtest compound)/(ERkinase−ERblank)×100%. 2.
The half-inhibitory concentration IC50 was calculated by fitting with XLFIT5.0 software (IDBS, UK).

The next data set deals with βBTK Y223 (Homo sapiens (Human), UniProt Q06187). Kind of data set: Intracellular βBTK Y223 phosphorylation HTRF in Ramos cells. The data set is classed as cell-based. The method, then: The compound was predissolved in 100% DMSO. […] 20 μl of lysate (4× lysate: blocked mother liquor is 25:1) was added to each well and incubated for 30 minutes at 25° C. on a shaker. It was shaken on an oscillator at 800 rpm for 1 minute. […] The half-inhibitory concentration IC50 was calculated by fitting with XLFIT 5.0 software (IDBS, UK).
βBTK Y223, sequence (Q06187 whole entry): as above

The next data set is described as follows: in vivo. As to conditions: mouse, in vivo, po, 30 mg/kg. The protocol:
Test Animals: ICR mice, weight 28-30 g, male, totally 12, purchased from SLAC Laboratory Animal Co., Ltd. Mice were fasting one night before administration and freely fed 4 hours after administration.
Administration and Blood collection: 6 mice were administered intragastrically (PO) in a administered dosage of 30 mg/kg and a administered volume of 10 mL/kg. One administration route was subjected with 6 mice, blood samples of three mice were collected at one time point, and blood samples of another three mice were collected at alternate time point alternately. Blood was collected at 8 time points of 0.083, 0.25, 0.5, 1, 2, 4, 8, 24 h after administration respectively.
Animals were manually controlled at the time of collection and approximately 80 μL of blood was collected from the mice fundus venous plexus into a tube containing K2EDTA. The collected blood sample was put on wet ice, centrifuged within 15 min (8000 rpm, 4 min at 4° C.), and then the plasma sample was taken and stored at minus 20° C. till analysis. The compounds were prepared on the day of the experiment.
Solvent excipient information: DMSO (brand: Sigma, batch number: SHBD2446V); 2-hydroxypropyl-3-cyclodextrin (brand: Sigma, batch number: BCBN8227V), acetic acid (brand: Sinopharm Group, batch number: 20150616), sodium acetate (Brand: GENERAL-REAGENT, batch number: P1246037).
Preparation of a 3 mg/mL PO dosing solution: the solvent was a solution of 5% DMSO and 95% PH4.5 (sodium acetate-acetate) in 20% of 2-hydroxypropyl-β-cyclodextrin.
Analytical method: Plasma samples were analyzed by liquid chromatography-tandem mass spectrometry (Instrument type: Triple Quad™ 4000).
Preparation of the standard curve: preparing a standard curve of the test compound 1n the plasma matrix of ICR mice with a linear range of 1.00-3000 ng/mL, and preparing control samples at low, medium and high concentrations of 3 ng/mL, 500 ng/mL, and 2400 ng/mL respectively.
Treatment of biological samples: the frozen plasma samples were thawed on ice, and after the samples were thawed, they were vortexed on a vortex for 5 min. 20 μL of plasma sample was added to a 96-well plate, and 200 μL of acetonitrile (brand: Merck, Lot: 1854029643) containing an internal standard dexamethasone (Brand: NIFDC, Lot: 1N2V-DPGY, 2000 ng/mL) was added to precipitate protein, which were vortexed for 5 min, and then centrifuged at 3700 rpm and 4° C. for 15 min. The supernatant was extracted and twice centrifuged under the same conditions, and finally 2 μL of the supernatant solution was analyzed by LC-MS/MS.

wild-type EGFR kinase, sequence (P00533 25-1210): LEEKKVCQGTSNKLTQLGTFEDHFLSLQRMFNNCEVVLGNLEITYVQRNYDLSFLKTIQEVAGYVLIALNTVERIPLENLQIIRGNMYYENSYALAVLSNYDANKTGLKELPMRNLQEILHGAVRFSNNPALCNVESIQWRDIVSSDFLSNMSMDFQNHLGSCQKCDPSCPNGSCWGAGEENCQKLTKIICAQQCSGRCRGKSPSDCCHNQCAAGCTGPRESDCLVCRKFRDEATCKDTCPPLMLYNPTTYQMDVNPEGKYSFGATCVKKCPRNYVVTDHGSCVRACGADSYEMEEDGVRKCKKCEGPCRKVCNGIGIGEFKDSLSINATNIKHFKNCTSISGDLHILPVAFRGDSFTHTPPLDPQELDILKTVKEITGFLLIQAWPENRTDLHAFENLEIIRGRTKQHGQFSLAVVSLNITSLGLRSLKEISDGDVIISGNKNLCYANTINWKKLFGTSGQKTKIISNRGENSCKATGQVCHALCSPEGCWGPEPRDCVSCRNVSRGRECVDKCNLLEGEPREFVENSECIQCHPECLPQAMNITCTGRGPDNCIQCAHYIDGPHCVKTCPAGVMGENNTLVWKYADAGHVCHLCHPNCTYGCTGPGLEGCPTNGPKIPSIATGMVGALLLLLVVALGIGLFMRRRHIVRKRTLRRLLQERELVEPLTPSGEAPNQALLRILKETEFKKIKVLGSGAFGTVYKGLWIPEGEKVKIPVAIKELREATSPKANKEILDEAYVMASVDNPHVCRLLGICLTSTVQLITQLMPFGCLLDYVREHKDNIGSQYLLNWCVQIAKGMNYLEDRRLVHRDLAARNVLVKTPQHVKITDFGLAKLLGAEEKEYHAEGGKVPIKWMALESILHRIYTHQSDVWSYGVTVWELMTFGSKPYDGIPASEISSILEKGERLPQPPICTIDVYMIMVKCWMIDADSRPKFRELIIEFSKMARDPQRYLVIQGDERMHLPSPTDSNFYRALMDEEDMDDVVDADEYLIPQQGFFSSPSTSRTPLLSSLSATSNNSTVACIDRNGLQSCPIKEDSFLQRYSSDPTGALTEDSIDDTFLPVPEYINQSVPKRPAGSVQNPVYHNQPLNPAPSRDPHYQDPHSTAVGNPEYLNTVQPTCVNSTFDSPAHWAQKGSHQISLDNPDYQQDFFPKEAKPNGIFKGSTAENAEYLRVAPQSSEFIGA

One may read the pIC50 as the IC50 on a negative log10 scale, so that one unit is a factor of ten. Turning to `C=CC(=O)N1CC(Nc2nc(Nc3ccc(OCCOC)cc3)c3c(c2F)CNC3=O)C1` [Compound G-5], the pIC50 was 5.72 on wild-type EGFR kinase, 7.32 at BTK WT and 7.23 on βBTK Y223.
As usually defined, the Tmax is the time from dosing to the highest level. Turning to `C=CC(=O)N1CCCC(Nc2nc(Nc3ccc(N4CCN(C5COC5)CC4C)cc3)c3c(c2F)CNC3=O)C1` (stereo not shown) [Compound G-34], in the data set “in vivo”, the “Area under curve AUC” value was 1869 ng·h/mL, the “Maximum blood concentration Cmax” value was found to be 1990.0 ng/mL, the “Oral relative bioavailability F (%)” value is given as 28.6% and the “Tmax” value amounted to 4.8 min. Moreover, the “half-time T1/2” value in the data set “in vivo” worked out at 86.4 min. For the same compound, the pIC50 on wild-type EGFR kinase is 5.50. The compound further had a pIC50 on BTK WT of 8.30.
`C=CC(=O)N1CCCC(Nc2nc(Nc3ccc(N4CCN(C)CC4)cc3)c3c(c2F)CNC3=O)C1` (stereo not shown) [Compound G-11]: the pIC50 at wild-type EGFR kinase was 5.37; on BTK WT it was 9.00; on βBTK Y223, 8.70.
On to `C=CC(=O)N1CCCC(Nc2nc(Nc3cnn(C)n3)c3c(c2F)CNC3=O)C1` (stereo not shown) [Compound G-35], for which, at βBTK Y223, the pIC50 was 7.46.
Take `C=CC(=O)N1CCCC(Nc2nc(-c3cnn(C4CC4)c3)c3c(c2F)CNC3=O)C1` (stereo not shown) [Compound G-45]: the pIC50 is 7.16 on BTK WT and 6.96 against βBTK Y223.
As to `C=CC(=O)N1CCCC(Nc2nc(-c3cnn(C(F)F)c3)c3c(c2F)CNC3=O)C1` (stereo not shown) [Compound G-48], the pIC50 at βBTK Y223 is 7.21.
On to `C=CC(=O)N1CC(Nc2nc(Nc3ccc(N4CCOCC4)c(F)c3)c3c(c2F)CNC3=O)CCC1C` (stereo not shown) [Compound G-41], for which the pIC50 against BTK WT is 8.70; at βBTK Y223, 8.52.
Consider `C=CC(=O)N1CCCC(Nc2nc(Nc3ccc(N4CCOCC4C)c(F)c3)c3c(c2F)CNC3=O)C1` (stereo not shown) [Compound G-42], for which, in “in vivo”, the “Area under curve AUC” value turned out to be 1266 ng·h/mL, the “Maximum blood concentration Cmax” value is recorded as 945.0 ng/mL, the “Oral relative bioavailability F (%)” value is 12.3% and the “Tmax” value came to 15 min. The “half-time T1/2” value in the data set “in vivo” is 104 min. Further, the pIC50 on wild-type EGFR kinase was 5.28. The compound also showed a pIC50 at BTK WT of 8.30.
In the case of `C=CC(=O)N1CCCC(Nc2nc3c(c(Nc4cnn(C)c4)n2)C(=O)NC3)C1` (stereo not shown) [Compound G-59, 2-(1-acryloylpiperidin-3-ylamino)-4-(1-methyl-1H-pyrazole-4-ylamino)-6,7-dihydrogen-5H-pyrrolo[3,4-d]pyrimidine-5-one], the negative-log IC50 (pIC50) on wild-type EGFR kinase was 5.99; on BTK WT it was 7.89; against βBTK Y223, 7.80.
Turning to `C=CC(=O)N1CCCC(Nc2nc(Nc3ccc(N4CCOCC4=O)cc3)c3c(c2F)CNC3=O)C1` (stereo not shown) [Compound G-17], the pIC50 was 5.82 on wild-type EGFR kinase, 8.70 on BTK WT and 7.80 at βBTK Y223.
On to `C=CC(=O)N1CC(Nc2nc(Nc3ccc(N4CCOCC4)cc3)c3c(c2F)CNC3=O)CCC1C` (stereo not shown) [Compound G-28], for which the pIC50 on wild-type EGFR kinase was 5.64; against BTK WT, 8.30; at βBTK Y223, 8.00.
`C=CC(=O)NC1CN(c2nc(Nc3ccc(N4CCOCC4)cc3)c3c(c2F)CNC3=O)CC1F` (stereo not shown) [Compound G-86, N-(4-fluoro-1-(7-fluoro-4-(4-morpholin)-3-oxo-2,3-dihydro-1H-pyrrolo[3,4-c]pyridin-6-yl)pyrrolidinepyridine-3-yl)acrylamide]: the pIC50 is 5.93 on wild-type EGFR kinase, 9.00 against BTK WT and 8.30 at βBTK Y223.
The AUC is concentration integrated over time. Broadly, the Cmax is the highest concentration seen after dosing. By bioavailability is commonly meant the share of a dose that reaches the circulation, judged against a reference dose that is usually intravenous. Low readings indicate little systemic uptake, high ones much systemic uptake. The half-life is how long it takes for the measured level to halve. Consider `C=CC(=O)N1CCC[C@@H](Nc2nc(-c3cnn(C)c3)c3c(c2F)CNC3=O)C1` [Compound G-111], for which, in the data set “in vivo” (male, ICR), the AUC amounted to 2180 ng·h/mL, the peak level (Cmax) was 3490 ng/mL, the Tmax turned out to be 4.8 min and the bioavailability turned out to be 79.7%. For the same compound, the half-life in “in vivo” (male, ICR) was 356 min. The pIC50 on wild-type EGFR kinase was less than 5.00. The pIC50 on BTK WT is 7.16.
For the compound `C=CC(=O)N1CCC[C@H](Nc2nc(Nc3ccc(N4CCOCC4)cc3)c3c(c2F)CNC3=O)C1` [Compound G-114], in the data set “in vivo” (male, ICR), the AUC is 1070 ng·h/mL, the concentration peaked (Cmax) at 1240 ng/mL, the Tmax is 4.8 min and the bioavailability came out at 13.7%. In addition, the half-life in the data set “in vivo” (male, ICR) was 148 min. On wild-type EGFR kinase, the pIC50 was 5.38. In addition, the pIC50 against BTK WT was 7.47.
On βBTK Y223, `C=CC(=O)N1CCC(Nc2nc(Nc3ccc(OCCOC)cc3)c3c(c2F)CNC3=O)CC1` [Compound G-6] showed a pIC50 of 7.54.
With `C=CC(=O)N1CCCC(Nc2nc(Nc3cnn(C4CN(C)CC4F)c3)c3c(c2F)CNC3=O)C1` (stereo not shown) [Compound G-15], the pIC50 on wild-type EGFR kinase was 5.92; at BTK WT, 8.52; on βBTK Y223 it was 8.30.
`C=CC(=O)N1CCCC(Nc2nc(Nc3cc(C)ns3)c3c(c2F)CNC3=O)C1` (stereo not shown) [Compound G-23]: in “in vivo”, the “Area under curve AUC” value amounted to 645 ng·h/mL, the “Maximum blood concentration Cmax” value came out at 878.7 ng/mL, the “Oral relative bioavailability F (%)” value was 14% and the time to peak (Tmax) turned out to be 4.8 min. The “half-time T1/2” value in the data set “in vivo” worked out at 195 min. Further, the pIC50 on wild-type EGFR kinase is 5.75. This compound gave a pIC50 on BTK WT of 8.30.
As for `C=CC(=O)N1CCCC(Nc2nc(Nc3ccc(N4CCOCC4)c(F)c3)c3c(c2F)CNC3=O)C1` (stereo not shown) [Compound G-33], in the data set “in vivo”, the “Area under curve AUC” value is 1193 ng·h/mL, the “Maximum blood concentration Cmax” value was 964.0 ng/mL, the “Oral relative bioavailability F (%)” value was 15.6% and the “Tmax” value came to 4.8 min. Besides, the “half-time T1/2” value in the data set “in vivo” turned out to be 71.4 min. In addition, on wild-type EGFR kinase, the pIC50 was 5.14. In addition, the pIC50 on BTK WT is 8.30.
Take `C=CC(=O)N1CCCC(Nc2nc(-c3cnc(C)s3)c3c(c2F)CNC3=O)C1` (stereo not shown) [Compound G-53]: the pIC50 was 5.13 at wild-type EGFR kinase and 7.29 against BTK WT.
Regarding `C=CC(=O)N1CCC[C@@H](N(C)c2nc(-c3cnn(C)c3)c3c(c2F)CNC3=O)C1` [Compound G-113], the figures for the pIC50 on wild-type EGFR kinase and against BTK WT were 5.21 and 8.30, respectively.
Take `C=CC(=O)N1CCCC(Nc2nc(Nc3ccc(N4CCOCC4C)cc3)c3c(c2F)CNC3=O)C1` (stereo not shown) [Compound G-32]: in “in vivo”, the “Area under curve AUC” value came to 1463 ng·h/mL, the “Maximum blood concentration Cmax” value is on record as 837.7 ng/mL, the “Oral relative bioavailability F (%)” value stood at 14.7% and the “Tmax” value was found to be 30 min. In “in vivo”, the “half-time T1/2” value turned out to be 72.6 min. Besides, at wild-type EGFR kinase, the pIC50 was 5.27. At BTK WT, this compound gave a pIC50 of 8.30.
Regarding `C=CC(=O)N1CCCC(Nc2nc(Nc3ccc(N4CCC(O)C(C)(C)C4)cn3)c3c(c2F)CNC3=O)C1` (stereo not shown) [Compound G-21], the figures for the pIC50 on wild-type EGFR kinase and at BTK WT were 5.08 and 7.23, respectively.
Regarding `C=CC(=O)N1CCC2CN(c3nc(Nc4cnn(C)c4)c4c(c3F)CNC4=O)CC21` (stereo not shown) [Compound G-87], the results for the pIC50 against BTK WT and against βBTK Y223 were 9.00 and 8.40, respectively.
